Experimental data as given in article PMC11831560, “Development of the Pyrido[2,3-d]pyrimidin-7(8H)-one Scaffold toward Potent and Selective NUAK1 Inhibitors” (ACS Medicinal Chemistry Letters, 2025).

Experiments:
[1] = design: method as in PMID 24568969; conditions: mice, I.V. dosing 5 mgkg^–1; cited from earlier work
[2] = tested on: CDK4/D1; design: method as in Reddy et al. 28; conditions: ref Reddy et al. 28; cited from earlier work
[3] = tested on: CDK6/D1; design: method as in Reddy et al. 28; conditions: ref Reddy et al. 28; cited from earlier work
[4] = Microsomal stability, human; format: in vitro ADME; conditions: human liver microsomes; read-out: HLM t1/2
Procedure: All single point assay determinations carried out in duplicate.
ADMET and PK experimental methods
Microsomal stability: analysis was performed by Cyprotex Discovery. […]

[5] = target: PIM3 (Homo sapiens, UniProt Q86V86); test: Kinase panel radiometric filter binding (33P-ATP); format: biochemical; design: dose or concentration left out as unconfirmed
How it was run: (§1)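 140-kinase general panel; radiometric filter binding, 33P-ATP; test compound 1 µM; % activity remaining ± s.d.; pIC50 determined only if <20% activity.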

[6] = target: PAK6 (Homo sapiens, UniProt Q9NQU5); test: Kinase panel radiometric filter binding (33P-ATP); format: biochemical; design: dose or concentration left out as unconfirmed
How it was run: as §1

[7] = target: p38d MAPK (Homo sapiens, UniProt O15264); test: Kinase panel radiometric filter binding (33P-ATP); format: biochemical; design: dose or concentration left out as unconfirmed
How it was run: as §1

[8] = target: ABL (Homo sapiens, UniProt P00519); test: Kinase panel radiometric filter binding (33P-ATP); format: biochemical; design: dose or concentration left out as unconfirmed
How it was run: as §1

[9] = target: Aurora B (Homo sapiens, UniProt Q96GD4); test: Kinase panel radiometric filter binding (33P-ATP); format: biochemical; design: dose or concentration left out as unconfirmed
How it was run: as §1

[10] = target: MINK1 (Homo sapiens, UniProt Q8N4C8); test: Kinase panel radiometric filter binding (33P-ATP); format: biochemical; design: dose or concentration left out as unconfirmed
How it was run: as §1

[11] = target: EPH-A2 (Homo sapiens, UniProt P29317); test: Kinase panel radiometric filter binding (33P-ATP); format: biochemical; design: dose or concentration left out as unconfirmed
How it was run: as §1

[12] = tested on: PINK; test: Kinase panel radiometric filter binding (33P-ATP); format: biochemical; design: dose or concentration left out as unconfirmed
How it was run: as §1

[13] = target: DYRK1A (Homo sapiens, UniProt Q13627); test: Kinase panel radiometric filter binding (33P-ATP); format: biochemical; design: dose or concentration left out as unconfirmed
How it was run: as §1

[14] = target: EPH-B4 (Homo sapiens, UniProt P54760); test: Kinase panel radiometric filter binding (33P-ATP); format: biochemical; design: dose or concentration left out as unconfirmed
Sequence of EPH-B4 (P54760 16-987): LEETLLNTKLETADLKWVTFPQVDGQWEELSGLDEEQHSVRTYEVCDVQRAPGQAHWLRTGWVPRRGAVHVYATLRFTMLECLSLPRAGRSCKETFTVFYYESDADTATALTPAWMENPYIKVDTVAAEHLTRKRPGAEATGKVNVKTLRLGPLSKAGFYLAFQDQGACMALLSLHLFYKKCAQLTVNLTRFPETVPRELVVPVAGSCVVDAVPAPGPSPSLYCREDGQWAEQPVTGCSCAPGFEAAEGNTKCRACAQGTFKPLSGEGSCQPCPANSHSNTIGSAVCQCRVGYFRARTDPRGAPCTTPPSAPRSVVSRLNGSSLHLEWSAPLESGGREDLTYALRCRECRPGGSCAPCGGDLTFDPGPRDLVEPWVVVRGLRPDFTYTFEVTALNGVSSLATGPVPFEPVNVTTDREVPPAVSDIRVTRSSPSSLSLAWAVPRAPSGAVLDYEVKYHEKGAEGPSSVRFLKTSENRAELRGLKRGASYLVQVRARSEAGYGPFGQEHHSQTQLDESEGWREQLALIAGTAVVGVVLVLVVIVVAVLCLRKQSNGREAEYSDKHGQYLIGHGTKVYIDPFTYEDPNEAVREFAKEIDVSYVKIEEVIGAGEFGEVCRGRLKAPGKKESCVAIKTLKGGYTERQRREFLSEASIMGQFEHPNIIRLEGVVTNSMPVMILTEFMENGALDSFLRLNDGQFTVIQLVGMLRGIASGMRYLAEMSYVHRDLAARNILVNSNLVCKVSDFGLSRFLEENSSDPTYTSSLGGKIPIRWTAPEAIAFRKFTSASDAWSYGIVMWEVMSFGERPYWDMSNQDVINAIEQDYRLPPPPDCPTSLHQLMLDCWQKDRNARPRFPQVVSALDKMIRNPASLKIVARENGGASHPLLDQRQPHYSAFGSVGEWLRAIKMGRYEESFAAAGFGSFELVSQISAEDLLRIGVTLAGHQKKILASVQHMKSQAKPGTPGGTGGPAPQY
How it was run: as §1

[15] = target: PKBb (Homo sapiens, UniProt P31751); test: Kinase panel radiometric filter binding (33P-ATP); format: biochemical; design: dose or concentration left out as unconfirmed
How it was run: as §1

[16] = target: CDK9-Cyclin T1 (Homo sapiens, UniProt P50750); test: Kinase panel radiometric filter binding (33P-ATP); format: biochemical; design: dose or concentration left out as unconfirmed
How it was run: as §1

[17] = target: FGF-R1 (Homo sapiens, UniProt P11362); test: Kinase panel radiometric filter binding (33P-ATP); format: biochemical; design: dose or concentration left out as unconfirmed
Sequence of FGF-R1 (P11362 22-822): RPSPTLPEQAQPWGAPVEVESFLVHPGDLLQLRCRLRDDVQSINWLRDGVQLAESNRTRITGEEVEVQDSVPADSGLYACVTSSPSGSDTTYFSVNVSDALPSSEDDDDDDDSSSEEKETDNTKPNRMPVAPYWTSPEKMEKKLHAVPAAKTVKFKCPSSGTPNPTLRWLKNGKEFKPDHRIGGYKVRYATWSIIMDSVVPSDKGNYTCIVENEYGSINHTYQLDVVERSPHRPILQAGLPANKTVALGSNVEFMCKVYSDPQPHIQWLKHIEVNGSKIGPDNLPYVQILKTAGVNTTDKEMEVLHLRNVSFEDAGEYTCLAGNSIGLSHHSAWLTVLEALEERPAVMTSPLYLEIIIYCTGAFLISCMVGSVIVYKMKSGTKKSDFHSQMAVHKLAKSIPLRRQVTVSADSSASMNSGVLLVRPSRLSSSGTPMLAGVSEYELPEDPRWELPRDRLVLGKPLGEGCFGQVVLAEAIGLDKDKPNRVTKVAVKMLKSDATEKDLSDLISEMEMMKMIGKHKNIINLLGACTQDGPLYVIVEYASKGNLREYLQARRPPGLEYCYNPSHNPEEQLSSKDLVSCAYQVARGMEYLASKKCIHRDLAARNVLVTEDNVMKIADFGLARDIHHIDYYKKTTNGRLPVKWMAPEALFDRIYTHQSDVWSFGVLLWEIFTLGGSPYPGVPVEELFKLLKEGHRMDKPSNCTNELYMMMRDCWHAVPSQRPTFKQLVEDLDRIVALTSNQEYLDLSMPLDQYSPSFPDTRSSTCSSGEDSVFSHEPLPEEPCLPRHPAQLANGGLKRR
How it was run: as §1

[18] = target: MKK1 (Homo sapiens, UniProt Q02750); test: Kinase panel radiometric filter binding (33P-ATP); format: biochemical; design: dose or concentration left out as unconfirmed
How it was run: as §1

[19] = target: PKCz (Homo sapiens, UniProt Q05513); test: Kinase panel radiometric filter binding (33P-ATP); format: biochemical; design: dose or concentration left out as unconfirmed
Sequence of PKCz (Q05513 whole entry): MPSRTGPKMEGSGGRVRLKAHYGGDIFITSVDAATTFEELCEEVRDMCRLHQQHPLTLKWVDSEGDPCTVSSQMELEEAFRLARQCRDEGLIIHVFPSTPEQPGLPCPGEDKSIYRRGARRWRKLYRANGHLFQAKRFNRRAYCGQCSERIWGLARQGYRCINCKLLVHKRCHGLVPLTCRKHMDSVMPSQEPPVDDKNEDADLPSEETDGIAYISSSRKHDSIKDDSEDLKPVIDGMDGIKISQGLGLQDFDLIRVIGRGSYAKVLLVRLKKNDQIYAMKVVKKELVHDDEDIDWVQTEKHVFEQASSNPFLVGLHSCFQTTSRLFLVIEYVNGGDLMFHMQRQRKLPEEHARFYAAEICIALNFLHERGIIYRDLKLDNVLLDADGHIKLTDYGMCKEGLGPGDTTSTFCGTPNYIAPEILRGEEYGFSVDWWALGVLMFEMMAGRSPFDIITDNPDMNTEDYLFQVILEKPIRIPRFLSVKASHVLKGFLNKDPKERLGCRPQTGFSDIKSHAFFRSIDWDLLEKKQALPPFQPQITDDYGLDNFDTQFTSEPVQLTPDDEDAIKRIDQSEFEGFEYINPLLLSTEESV
How it was run: as §1

[20] = target: MAPKAP-K2 (Homo sapiens, UniProt P49137); test: Kinase panel radiometric filter binding (33P-ATP); format: biochemical; design: dose or concentration left out as unconfirmed
How it was run: as §1

[21] = target: TTBK2 (Homo sapiens, UniProt Q6IQ55); test: Kinase panel radiometric filter binding (33P-ATP); format: biochemical; design: dose or concentration left out as unconfirmed
Sequence of TTBK2 (Q6IQ55 whole entry): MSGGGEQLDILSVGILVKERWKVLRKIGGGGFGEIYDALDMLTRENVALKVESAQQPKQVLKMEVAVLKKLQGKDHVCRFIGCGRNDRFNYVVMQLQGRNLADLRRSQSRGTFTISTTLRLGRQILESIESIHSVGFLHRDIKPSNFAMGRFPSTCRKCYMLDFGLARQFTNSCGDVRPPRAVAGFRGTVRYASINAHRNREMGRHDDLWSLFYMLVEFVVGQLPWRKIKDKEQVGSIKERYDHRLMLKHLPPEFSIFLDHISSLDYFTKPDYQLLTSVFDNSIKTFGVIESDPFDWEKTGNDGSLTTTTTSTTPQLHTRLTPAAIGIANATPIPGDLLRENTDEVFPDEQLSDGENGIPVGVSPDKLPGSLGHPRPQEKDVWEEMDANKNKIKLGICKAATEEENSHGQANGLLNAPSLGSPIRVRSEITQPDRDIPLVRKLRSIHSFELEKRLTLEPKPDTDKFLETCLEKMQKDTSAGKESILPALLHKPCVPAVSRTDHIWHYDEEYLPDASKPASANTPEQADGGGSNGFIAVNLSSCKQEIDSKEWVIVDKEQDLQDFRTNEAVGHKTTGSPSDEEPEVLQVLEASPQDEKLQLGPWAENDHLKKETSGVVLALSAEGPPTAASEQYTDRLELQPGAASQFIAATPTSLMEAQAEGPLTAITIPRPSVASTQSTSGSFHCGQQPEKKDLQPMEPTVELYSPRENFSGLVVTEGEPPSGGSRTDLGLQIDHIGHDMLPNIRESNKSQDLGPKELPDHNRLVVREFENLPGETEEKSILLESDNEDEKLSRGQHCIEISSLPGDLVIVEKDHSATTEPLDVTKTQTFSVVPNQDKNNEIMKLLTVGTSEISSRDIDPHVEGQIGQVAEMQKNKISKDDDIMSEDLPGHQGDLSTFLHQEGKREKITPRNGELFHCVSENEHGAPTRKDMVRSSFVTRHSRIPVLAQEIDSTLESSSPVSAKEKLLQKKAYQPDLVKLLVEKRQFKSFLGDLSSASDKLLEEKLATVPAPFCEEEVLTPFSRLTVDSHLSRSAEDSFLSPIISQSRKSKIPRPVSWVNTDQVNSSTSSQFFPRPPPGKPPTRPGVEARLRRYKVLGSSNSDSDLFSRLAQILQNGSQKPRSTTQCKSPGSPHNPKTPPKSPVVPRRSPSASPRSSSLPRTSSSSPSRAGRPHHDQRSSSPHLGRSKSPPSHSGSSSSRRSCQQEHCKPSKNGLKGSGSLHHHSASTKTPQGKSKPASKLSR
How it was run: as §1

[22] = target: BRK (Homo sapiens, UniProt Q13882); test: Kinase panel radiometric filter binding (33P-ATP); format: biochemical; design: dose or concentration left out as unconfirmed
Sequence of BRK (Q13882 whole entry): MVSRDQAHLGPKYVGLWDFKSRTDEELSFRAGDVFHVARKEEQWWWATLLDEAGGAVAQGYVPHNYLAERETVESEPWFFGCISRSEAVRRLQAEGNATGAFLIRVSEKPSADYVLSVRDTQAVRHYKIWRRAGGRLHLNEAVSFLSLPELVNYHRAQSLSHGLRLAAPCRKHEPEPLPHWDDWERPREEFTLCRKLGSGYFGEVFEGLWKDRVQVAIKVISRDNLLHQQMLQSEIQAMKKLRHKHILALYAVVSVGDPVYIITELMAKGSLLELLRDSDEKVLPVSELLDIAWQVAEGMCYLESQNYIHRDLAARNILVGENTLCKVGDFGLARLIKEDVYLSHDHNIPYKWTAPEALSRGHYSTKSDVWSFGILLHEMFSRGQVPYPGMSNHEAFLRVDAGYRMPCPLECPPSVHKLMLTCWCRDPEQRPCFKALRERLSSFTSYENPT
How it was run: as §1

[23] = target: MAP4K3 (Homo sapiens, UniProt Q8IVH8); test: Kinase panel radiometric filter binding (33P-ATP); format: biochemical; design: dose or concentration left out as unconfirmed
How it was run: as §1

[24] = target: EPH-B2 (Homo sapiens, UniProt P29323); test: Kinase panel radiometric filter binding (33P-ATP); format: biochemical; design: dose or concentration left out as unconfirmed
How it was run: as §1

[25] = target: MST2 (Homo sapiens, UniProt Q13188); test: Kinase panel radiometric filter binding (33P-ATP); format: biochemical; design: dose or concentration left out as unconfirmed
How it was run: as §1

[26] = target: MLK3 (Homo sapiens, UniProt Q16584); test: Kinase panel radiometric filter binding (33P-ATP); format: biochemical; design: dose or concentration left out as unconfirmed
Sequence of MLK3 (Q16584 whole entry): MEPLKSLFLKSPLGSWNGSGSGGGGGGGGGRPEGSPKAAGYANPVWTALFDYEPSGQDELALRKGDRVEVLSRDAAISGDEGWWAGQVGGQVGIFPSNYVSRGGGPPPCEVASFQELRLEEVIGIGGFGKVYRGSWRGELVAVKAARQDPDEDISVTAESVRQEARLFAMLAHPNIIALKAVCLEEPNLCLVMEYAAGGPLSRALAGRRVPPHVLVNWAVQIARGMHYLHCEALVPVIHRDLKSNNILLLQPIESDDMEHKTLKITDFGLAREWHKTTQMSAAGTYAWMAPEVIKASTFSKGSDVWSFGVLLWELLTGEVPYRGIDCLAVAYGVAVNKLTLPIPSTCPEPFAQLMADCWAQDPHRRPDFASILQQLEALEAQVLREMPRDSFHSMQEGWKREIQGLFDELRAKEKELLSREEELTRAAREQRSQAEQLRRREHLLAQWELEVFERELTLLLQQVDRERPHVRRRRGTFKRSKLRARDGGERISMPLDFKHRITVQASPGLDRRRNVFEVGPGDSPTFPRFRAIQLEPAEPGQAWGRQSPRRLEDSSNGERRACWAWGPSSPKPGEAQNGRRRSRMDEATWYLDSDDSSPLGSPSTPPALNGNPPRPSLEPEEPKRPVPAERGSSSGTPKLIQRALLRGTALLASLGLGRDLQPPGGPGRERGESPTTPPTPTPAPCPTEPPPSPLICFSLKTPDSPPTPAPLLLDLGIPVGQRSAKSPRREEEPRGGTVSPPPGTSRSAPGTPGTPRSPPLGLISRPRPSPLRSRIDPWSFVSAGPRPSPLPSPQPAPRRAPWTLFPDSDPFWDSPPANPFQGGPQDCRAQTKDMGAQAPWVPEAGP
How it was run: as §1

[27] = target: Src (Homo sapiens, UniProt P12931); test: Kinase panel radiometric filter binding (33P-ATP); format: biochemical; design: dose or concentration left out as unconfirmed
How it was run: as §1

[28] = target: BRSK1 (Homo sapiens, UniProt Q8TDC3); test: Kinase panel radiometric filter binding (33P-ATP); format: biochemical; design: dose or concentration left out as unconfirmed
How it was run: as §1

| Compound | % activity remaining [5] | % activity remaining [6] | % activity remaining [7] | % activity remaining [8] | % activity remaining [9] | % activity remaining [10] | % activity remaining [11] | % activity remaining [12] | % activity remaining [13] | % activity remaining [14] | % activity remaining [15] | % activity remaining [16] | % activity remaining [17] | % activity remaining [18] | % activity remaining [19] | % activity remaining [20] | % activity remaining [21] | % activity remaining [22] | % activity remaining [23] | % activity remaining [24] | also measured |
| --- | --- | --- | --- | --- | --- | --- | --- | --- | --- | --- | --- | --- | --- | --- | --- | --- | --- | --- | --- | --- | --- |
| CN1CCN(c2ccc(Nc3ncc4cc(C#N)c(=O)n(C5CCCC5)c4n3)cc2)CC1 [Compound 3, Narazaciclib, reference compound] | – | – | – | – | – | – | – | – | – | – | – | – | – | – | – | – | – | – | – | – | plasma half-life t1/2 [1]: 90 min; CDK4/D1 pIC50 [2]: 8.4; CDK6/D1 pIC50 [3]: 8.0; half-life at 1 µM [4]: 6.9 min |
| Cc1cc(=O)n(C2CCCC2)c2nc(Nc3ccc(N4CC5CC(C4)N5C)cc3)ncc12 [Compound 9] | 80% | 78% | 94% | 41% | 61% | 30% | 77% | 96% | 78% | 61% | 99% | 67% | 56% | 108% | 110% | 110% | 97% | 67% | 29% | 60% | % activity remaining [25]: 62%; % activity remaining [26]: 43%; % activity remaining [27]: 53%; % activity remaining [28]: 81% |
| CN1C2CC1CN(c1ccc(Nc3ncc4ccn(CC5CCOCC5)c4n3)cc1)C2 [Compound 24] | 56% | 118% | 110% | 56% | 64% | 79% | 76% | 99% | 141% | 86% | 93% | 56% | 81% | 71% | 118% | 95% | 96% | 58% | 62% | 82% | % activity remaining [25]: 91%; % activity remaining [26]: 91%; % activity remaining [27]: 84%; % activity remaining [28]: 75% |
